How the values were obtained:
Assay type in all cases: in vivo
[1] = tested on: green foxtail (Setaria viridis); test: Test A preemergence; details: for Foxtail, Green plant response rating: 0 to 100 scale where 0 is no effect and 100 is complete control
In short: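 Preemergence soil spray on seeded pots or post-emergence spray on 1–2 leaf plants, in loam–sand blend. Greenhouse ~10 d. Visual rating 0–100 against untreated plants.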

[2] = tested on: nightshade (eastern black nightshade, Solanum ptycanthum); test: Test E preemergence; details: scale 0 to 100
Description: Seeds of plant species selected from corn (Zea mays), soybean (Glycine max), velvetleaf (Abutilon theophrasti), lambsquarters (Chenopodium album), poinsettia, wild (wild poinsettia, Euphorbia heterophylla), pigweed, palmer (palmer pigweed, Amaranthus palmeri), waterhemp (common waterhemp, Amaranthus rudis), surinam grass (Brachiaria decumbens), crabgrass, large (large crabgrass, Digitaria sangumnalis), crabgrass, Brazil (Brazilian crabgrass, Digitaria horizontalis), Panicum, fall (fall Panicum, Panicum dichotomiflorum), foxtail, giant (giant foxtail, Setaria faberii), foxtail, green (green foxtail, Setaria viridis), goosegrass (Eleusine indica), johnsongrass (Sorghum halepense), ragweed (common ragweed, Ambrosia elatior), barnyardgrass (Echinochloa crus-galli), sandbur (southern sandbur, Cenchrus echinatus), arrowleaf Sida (Sida rhombifolia), ryegrass, Italian (Italian ryegrass, Lolium multiflorum), dayflower, VA (Virginia dayflower, Commelina virginica), field bindweed (Convolvulus arvensis), morningglory (Ipomoea coccinea), nightshade (eastern black nightshade, Solanum ptycanthum), Kochia (Kochia scoparia), nutsedge, yellow (yellow nutsedge, Cyperus esculentus), horseweed (Conyza canadensis), and beggarticks (hairy beggarticks, Bidens pilosa), were planted into a silt loam soil and treated preemergence with test chemicals formulated in a non-phytotoxic solvent mixture which included a surfactant.
At the same time, plants selected from these crop and weed species were planted in pots containing Sunshine Redi-Earth planting medium comprising spaghnum peat moss, vermiculite, starter nutrients and dolomitic limestone and treated with postemergence applications of a test chemical formulated in the same manner. Plants ranged in height from 2 to 18 cm (1- to 4-leaf stage) for postemergence treatments. Treated plants and controls were maintained in a greenhouse for 14 to 21 d, after which time all species were compared to controls and visually evaluated. Plant response ratings, summarized in Table E, are based on a scale of 0 to 100 where 0 is no effect and 100 is complete control. A dash (-) response means no test result.

[3] = tested on: lambsquarters (Chenopodium album); test: Test D preemergence; details: scale 0 to 100
In short: (§1)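 Visual rating, 0 = no effect, 100 = complete control, versus controls ~21 d after treatment. Preemergence application to seeds planted in silt loam; compound in non-phytotoxic solvent mix with surfactant; controlled growth environment.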

[4] = tested on: barley, winter (winter barley Hordeum vulgare); test: Test D preemergence; details: scale 0 to 100
In short: as §1

[5] = tested on: Galium (catchweed bedstraw, Galium aparine); test: Test D preemergence; details: scale 0 to 100
In short: as §1

[6] = tested on: pigweed (Amaranthus retroflexus); test: Test D preemergence; details: scale 0 to 100
In short: as §1

[7] = tested on: canarygrass (littleseed canarygrass, Phalaris minor); test: Test D preemergence; details: scale 0 to 100
In short: as §1

[8] = tested on: oat, wild (wild oat, Avena fatua); test: Test D preemergence; details: scale 0 to 100
In short: as §1

[9] = tested on: mustard, wild (wild mustard, Sinapis arvensis); test: Test D preemergence; details: scale 0 to 100
In short: as §1

[10] = tested on: foxtail, green (green foxtail, Setaria viridis); test: Test D preemergence; details: scale 0 to 100
In short: as §1

[11] = tested on: wheat, winter (winter wheat, Triticum aestivum); test: Test D preemergence; details: scale 0 to 100
In short: as §1

[12] = 125 g ai/ha, preemergence, approx. 10 d

CN1C[C@H](c2csc3c2CCC(F)(F)C3)[C@@H](C(=O)Nc2ccccc2S(C)(=O)=O)C1=O (racemic) [Compound 1367]
Foxtail, Green plant response rating ([1]; 31 g ai/ha, Preemergence): 0
Plant response rating, Foxtail, Green ([1]; Preemergence, 125 g ai/ha, 0 to 100 scale (0 no effect, 100 complete control)): 60

CN1CC(c2ccc(C(F)(F)F)cc2)C(C(=O)Nc2ccccc2S(C)(=O)=O)C1=O (centres unmarked) [Compound 624]
Plant response rating: Nightshade ([2]; 31 g ai/ha): 70
Plant response rating: Nightshade ([2]; 62 g ai/ha): 75
Plant response rating: Nightshade ([2]; 125 g ai/ha): 80
Plant response rating: Nightshade ([2]; 250 g ai/ha): 80
Plant response rating: Lambsquarters ([3]; 31 g ai/ha): 0
Plant response rating: Lambsquarters ([3]; 62 g ai/ha): 70
Plant response rating: Lambsquarters ([3]; 125 g ai/ha): 35
Plant response rating: Lambsquarters ([3]; 250 g ai/ha): 60
Plant response rating: Barley, Winter ([4]; 31 g ai/ha): 0
Plant response rating: Barley, Winter ([4]; 62 g ai/ha): 0
Plant response rating: Barley, Winter ([4]; 125 g ai/ha): 0
Plant response rating: Barley, Winter ([4]; 250 g ai/ha): 40
Plant response rating: Galium ([5]; 31 g ai/ha): 0
Plant response rating: Galium ([5]; 62 g ai/ha): 0
Plant response rating: Galium ([5]; 125 g ai/ha): 0
Plant response rating: Galium ([5]; 250 g ai/ha): 0
Plant response rating: Pigweed ([6]; 31 g ai/ha): 35
Plant response rating: Pigweed ([6]; 62 g ai/ha): 80
Plant response rating: Pigweed ([6]; 125 g ai/ha): 95
Plant response rating: Pigweed ([6]; 250 g ai/ha): 98
Plant response rating: Canarygrass ([7]; 31 g ai/ha): 0
Plant response rating: Canarygrass ([7]; 62 g ai/ha): 15
Plant response rating: Canarygrass ([7]; 125 g ai/ha): 25
Plant response rating: Canarygrass ([7]; 250 g ai/ha): 45
Plant response rating: Oat, Wild ([8]; 31 g ai/ha): 0
Plant response rating: Oat, Wild ([8]; 62 g ai/ha): 5
Plant response rating: Oat, Wild ([8]; 125 g ai/ha): 15
Plant response rating: Oat, Wild ([8]; 250 g ai/ha): 35
Plant response rating: Mustard, Wild ([9]; 31 g ai/ha): 15
Plant response rating: Mustard, Wild ([9]; 62 g ai/ha): 30
Plant response rating: Mustard, Wild ([9]; 250 g ai/ha): 70
Plant response rating: Foxtail, Green ([10]; 31 g ai/ha): 40
Plant response rating: Foxtail, Green ([10]; 62 g ai/ha): 50
Plant response rating: Foxtail, Green ([10]; 125 g ai/ha): 90
Plant response rating: Foxtail, Green ([10]; 250 g ai/ha): 95
Plant response rating: Wheat, Winter ([11]; 31 g ai/ha): 0
Plant response rating: Wheat, Winter ([11]; 62 g ai/ha): 0
Plant response rating: Wheat, Winter ([11]; 125 g ai/ha): 5
Plant response rating: Wheat, Winter ([11]; 250 g ai/ha): 10

CN1CC(c2cccc(C(F)(F)F)c2)C(C(=O)Nc2cccc(F)c2F)C1=O (centres unmarked) [Compound 636]
Plant response rating: Nightshade ([2]; 31 g ai/ha): 0
Plant response rating: Nightshade ([2]; 62 g ai/ha): 0
Plant response rating: Nightshade ([2]; 125 g ai/ha): 40
Plant response rating: Nightshade ([2]; 250 g ai/ha): 50
Plant response rating: Lambsquarters ([3]; 31 g ai/ha): 35
Plant response rating: Lambsquarters ([3]; 62 g ai/ha): 70
Plant response rating: Lambsquarters ([3]; 125 g ai/ha): 80
Plant response rating: Lambsquarters ([3]; 250 g ai/ha): 90
Plant response rating: Barley, Winter ([4]; 31 g ai/ha): 5
Plant response rating: Barley, Winter ([4]; 62 g ai/ha): 45
Plant response rating: Barley, Winter ([4]; 125 g ai/ha): 55
Plant response rating: Barley, Winter ([4]; 250 g ai/ha): 80
Plant response rating: Galium ([5]; 31 g ai/ha): 0
Plant response rating: Galium ([5]; 62 g ai/ha): 15
Plant response rating: Galium ([5]; 125 g ai/ha): 30
Plant response rating: Galium ([5]; 250 g ai/ha): 60
Plant response rating: Pigweed ([6]; 31 g ai/ha): 0
Plant response rating: Pigweed ([6]; 62 g ai/ha): 10
Plant response rating: Pigweed ([6]; 125 g ai/ha): 50
Plant response rating: Pigweed ([6]; 250 g ai/ha): 85
Plant response rating: Canarygrass ([7]; 31 g ai/ha): 65
Plant response rating: Canarygrass ([7]; 62 g ai/ha): 85
Plant response rating: Canarygrass ([7]; 125 g ai/ha): 90
Plant response rating: Canarygrass ([7]; 250 g ai/ha): 95
Plant response rating: Oat, Wild ([8]; 31 g ai/ha): 5
Plant response rating: Oat, Wild ([8]; 62 g ai/ha): 30
Plant response rating: Oat, Wild ([8]; 125 g ai/ha): 80
Plant response rating: Oat, Wild ([8]; 250 g ai/ha): 85
Plant response rating: Mustard, Wild ([9]; 31 g ai/ha): 0
Plant response rating: Mustard, Wild ([9]; 62 g ai/ha): 15
Plant response rating: Mustard, Wild ([9]; 125 g ai/ha): 15
Plant response rating: Mustard, Wild ([9]; 250 g ai/ha): 85
Plant response rating: Foxtail, Green ([10]; 31 g ai/ha): 100
Plant response rating: Foxtail, Green ([10]; 62 g ai/ha): 100
Plant response rating: Foxtail, Green ([10]; 125 g ai/ha): 100
Plant response rating: Foxtail, Green ([10]; 250 g ai/ha): 100
Plant response rating: Wheat, Winter ([11]; 31 g ai/ha): 5
Plant response rating: Wheat, Winter ([11]; 62 g ai/ha): 60
Plant response rating: Wheat, Winter ([11]; 125 g ai/ha): 70
Plant response rating: Wheat, Winter ([11]; 250 g ai/ha): 65

CN1CC(c2cccc(C(F)(F)F)c2)C(C(=O)Nc2ccccc2S(C)(=O)=O)C1=O (centres unmarked) [Compound 637]
Plant response rating: Nightshade ([2]; 31 g ai/ha): 0
Plant response rating: Nightshade ([2]; 62 g ai/ha): 15
Plant response rating: Nightshade ([2]; 125 g ai/ha): 25
Plant response rating: Nightshade ([2]; 250 g ai/ha): 40
Plant response rating: Lambsquarters ([3]; 31 g ai/ha): 50
Plant response rating: Lambsquarters ([3]; 62 g ai/ha): 60
Plant response rating: Lambsquarters ([3]; 125 g ai/ha): 40
Plant response rating: Lambsquarters ([3]; 250 g ai/ha): 75
Plant response rating: Barley, Winter ([4]; 31 g ai/ha): 0
Plant response rating: Barley, Winter ([4]; 62 g ai/ha): 0
Plant response rating: Barley, Winter ([4]; 125 g ai/ha): 50
Plant response rating: Barley, Winter ([4]; 250 g ai/ha): 60
Plant response rating: Galium ([5]; 31 g ai/ha): 0
Plant response rating: Galium ([5]; 62 g ai/ha): 20
Plant response rating: Galium ([5]; 125 g ai/ha): 30
Plant response rating: Galium ([5]; 250 g ai/ha): 10
Plant response rating: Pigweed ([6]; 31 g ai/ha): 20
Plant response rating: Pigweed ([6]; 62 g ai/ha): 90
Plant response rating: Pigweed ([6]; 125 g ai/ha): 100
Plant response rating: Pigweed ([6]; 250 g ai/ha): 98
Plant response rating: Canarygrass ([7]; 31 g ai/ha): 0
Plant response rating: Canarygrass ([7]; 62 g ai/ha): 0
Plant response rating: Canarygrass ([7]; 125 g ai/ha): 50
Plant response rating: Canarygrass ([7]; 250 g ai/ha): 70
Plant response rating: Oat, Wild ([8]; 31 g ai/ha): 20
Plant response rating: Oat, Wild ([8]; 62 g ai/ha): 30
Plant response rating: Oat, Wild ([8]; 125 g ai/ha): 75
Plant response rating: Oat, Wild ([8]; 250 g ai/ha): 85
Plant response rating: Mustard, Wild ([9]; 31 g ai/ha): 5
Plant response rating: Mustard, Wild ([9]; 62 g ai/ha): 5
Plant response rating: Mustard, Wild ([9]; 125 g ai/ha): 15
Plant response rating: Mustard, Wild ([9]; 250 g ai/ha): 15
Plant response rating: Foxtail, Green ([10]; 31 g ai/ha): 75
Plant response rating: Foxtail, Green ([10]; 62 g ai/ha): 80
Plant response rating: Foxtail, Green ([10]; 125 g ai/ha): 95
Plant response rating: Foxtail, Green ([10]; 250 g ai/ha): 100
Plant response rating: Wheat, Winter ([11]; 31 g ai/ha): 5
Plant response rating: Wheat, Winter ([11]; 62 g ai/ha): 40
Plant response rating: Wheat, Winter ([11]; 125 g ai/ha): 60
Plant response rating: Wheat, Winter ([11]; 250 g ai/ha): 75

COc1cccc([C@H]2CN(C)C(=O)[C@@H]2C(=O)Nc2cccc(F)c2F)c1 [Compound 1062]
Foxtail, Green plant response rating ([1]; 31 g ai/ha, Preemergence): 100
Foxtail, Green plant response rating [1, 12]: 100

COc1cccc([C@H]2CN(C)C(=O)[C@@H]2C(=O)Nc2ccc(F)c(F)c2F)c1 [Compound 1063]
Foxtail, Green plant response rating ([1]; 31 g ai/ha, Preemergence): 100
Foxtail, Green plant response rating [1, 12]: 100
